This is an account of results in paper PMC12648310, “Modular Assembled Targeting Chimera Enables Multimodal Targeted Protein Degradation” (JACS Au, 2025).

Read-outs that look alike come from different tables or passages of the source.

For one data set, the target named is T1, BRD4 (Homo sapiens, UniProt O60885).
T1 construct: Western blot analysis of BET protein levels was performed across these 11 module assembly combinations; endogenous in cells; host or cells: MDA-MB-231
Kind of data set: Immunoblot of BRD4 degradation in MDA-MB-231 cells. It counts as cell-based. As to conditions: component without its click partner. The protocol:
deprotection under General Procedure I, followed by condensation with compound 4 under General Procedure II, yielded AN2-C3-Tz as a purple oil in 60% yield (over two steps from 25).
The full NMR and MS spectra of the synthesized degrader compounds were shown in Appendix A and B, respectively. The degrader compounds were dissolved in DMSO as 10 mM stock solution and stored at -20℃, freeze-thaw cycle was avoided. Inhibitors for bioassays were purchased from […]
Cell culture and drug treatment
The breast cancer cells and leukemia cells used were purchased from Wuhan Purdue Life Technology Co., Ltd. All cell lines were tested for mycoplasma to ensure no contamination. […]
The fluorescence spectrum of POM-dTz was measured using a Hitachi F4500. […]
P0013G) premixed with a protease inhibitor cocktail. […] The supernatant was quantified and adjusted using a bicinchoninic acid (BCA) method and then boiled in an SDS loading buffer. […] After another 3 washes with TBST, the membrane was incubated with an enzymatic chemiluminescence (ECL) reagent, and the signal was detected instantly by a chemiluminescence imager (JP-K600, Jiapeng, Shanghai, China).
The signal values were quantified by ImageJ software. The expression level of a target protein was determined by the ratio of its signal value to GAPDH’s. […]
On the technique in general: In western blotting, separated proteins are transferred to a membrane and probed.

A short description of data set [1]: Pharmacokinetics in SD rats. It counts as in vivo, Sprague–Dawley (SD) rats. As to conditions: for half-life / AUC(0-inf) / AUC(0-t) / Cmax / Tmax / bioavailability / C0 / Vd / clearance / MRT inf: male, Sprague-Dawley, rat, plasma; for clearance: read-out: CL_obs; for MRT inf: read-out: MRTinf_obs. On the procedure: Given the favorable cellular performance of the POM-dmTz and JQ1-TCO stoichiometric ratio, we further investigated their in vivo pharmacokinetic (PK) profiles (Figure ). […] Blood samples were collected from the jugular vein at 5 min, 15 min, 30 min, 1, 2, 4, 7, and 24 h postdosing for drug concentration analysis.
This pharmacokinetic study protocol used SPF grade male SD rats (6-8 weeks old, weight 200-300g, supplied by a biotechnology company in Beijing) to evaluate the metabolic characteristics of compound GP262 through intravenous injection (IV) and intraperitoneal injection (IP). The IV group received a dose of 5 mg/kg (2.5 mg/mL concentration, 2 mL/kg administration), while the IP group […]
consisted of 3 fasted animals. The IV group solvent was a mixed system containing 10% DMSO, 60% PEG400, and 30% water. Collect whole blood samples at 5 minutes, 15 minutes, 0.5 hours, 1, 2, 4, 7, and 24 hours after administration. Immediately after collection with EDTA-K2 anticoagulant tube, centrifuge at 4 ℃ and 4000 × g for 5 minutes. Separate the plasma and transfer it to an anticoagulant free EP tube. Store it at -75 ± 15 ℃ for testing at ultra-low temperature. Throughout the experiment, a dual drug group parallel control was set up, and standardized operating procedures were used to ensure the timeliness and storage stability of plasma separation, providing standardized biological samples for subsequent LC-MS/MS analysis. […]

As to `Cc1nnc(CNC(=O)CCOCC(COCCC(=O)NCc2nnc(C)nn2)NC(=O)COc2cccc3c2C(=O)N(C2CCC(=O)NC2=O)C3=O)nn1` (stereo not shown) [POM-dmTz], the “BRD4 degradation by single component alone” value at BRD4 was “neither component alone triggered detectable degradation”. Besides, in data set [1] (IP 10 mg/kg), the T1/2 entry is “shorter half-life” and the half-life is 22.6 min. In addition, in data set [1] (IP 10 mg/kg, mean), the AUC(0-inf) was 406 ng·h/mL, the exposure AUC(0-t) is 405 ng·h/mL, the maximum concentration (Cmax) is 398 ng/mL and the time to peak (Tmax) is 25 min. This molecule also returned a bioavailability in data set [1] (IP 10 mg/kg, mean) of 40.5%. In data set [1] (IV 5 mg/kg, mean), this molecule showed an AUC(0-inf) of 500 ng·h/mL, an area under the curve AUC(0-t) of 496 ng·h/mL, a C0 of 1850 ng/mL and a Vd of 9.39 L/kg. Further, in data set [1] (IV 5 mg/kg, mean), the half-life is 40.2 min, the clearance was 171 mL/min/kg and the MRT inf came to 21.3 min.

Regarding `Cc1sc2c(c1C)C(c1ccc(Cl)cc1)=NC(CC(=O)NCCNC(=O)OC1CCC=CCCC1)c1nnc(C)n1-2` (stereo not shown) [JQ1-TCO], the “BRD4 degradation by single component alone” value at BRD4 is “neither component alone triggered detectable degradation”. Moreover, the half-life in data set [1] (IP 10 mg/kg) is ~124 min. In data set [1] (IP 20 mg/kg, mean), the total exposure AUC(0-inf) is 7670 ng·h/mL, the exposure AUC(0-t) is 7660 ng·h/mL, the highest level (Cmax) was 1860 ng/mL and the Tmax came to 25 min. In data set [1] (IP 20 mg/kg, mean), the bioavailability amounted to 64%, the half-life is 124 min and the MRT inf was 193 min. For the same molecule, in data set [1] (IV 5 mg/kg, mean), the total exposure AUC(0-inf) was 1240 ng·h/mL, the exposure AUC(0-t) came out at 1240 ng·h/mL, the C0 stood at 2030 ng/mL and the Vd stood at 10.3 L/kg. In addition, in data set [1] (IV 5 mg/kg, mean), the half-life was 118 min, the clearance is 69 mL/min/kg and the MRT inf amounted to 44 min.

What is called half-life is the time in which the quantity being followed falls by half. Low values mean rapid decline, high ones slow decline. For orientation: AUC(0-inf) means the area under the concentration-time curve extrapolated to infinity. Lower therefore signals less exposure. As a reminder, the AUC(0-t) is exposure summed from dosing to a finite time, without extrapolation to infinity. Low values mean less exposure, high ones more exposure. One may read the Cmax as the peak of the concentration-time curve. The Tmax is the time from dosing to the highest level. Broadly, the bioavailability is dose-corrected exposure relative to a reference, in per cent. As usually defined, the Vd is the apparent volume that relates the amount in the body to the concentration in plasma or blood. Read a high Vd as extensive tissue distribution.
